Three compounds from ChEMBL document CHEMBL6087388, “Hydrogen peroxide responsive theranostics for cancer-selective activation of DNA alkylators and real-time fluorescence monitoring in living cells” (Eur J Med Chem, 2024) can be followed below.

Data set [1] in a line: Drug localization in nucleus of human MDA-MB-468 cells assessed as accumulation of compound in nucleus at 5 uM pretreated with paraquat for 10 hrs followed by compound addition and measured after […] by SYTO 9 or Hoechst 33342 staining based confocal microscopic analysis. Format: ADME, subcellular. Conditions: mda-mb-468, 10 h; call rule not given here.
In data set [2] the test system is MCF-10A. The experiment in a line: Induction of DNA damage in human MCF-10A cells at 10 uM incubated for 48 hrs by Alkaline comet based EVOS digital inverted microscopic analysis. Format: toxicity, cell-based.
Data set [3] in a line: Drug localization in mitochondria of human MDA-MB-468 cells assessed as fluorescence at 5 uM pretreated with paraquat for […] by MitoTracker Red CMXRos based confocal microscopic analysis. The class given is ADME. Conditions: time 1.5 hrs.
The nature of data set [4]: Drug localization in mitochondria of human MDA-MB-468 cells assessed as accumulation of compound in mitochondria at 5 uM incubated for 0.5 hrs and measured after […] by MitoTracker Red CMXRos based confocal microscopic analysis. Format: ADME. Conditions: mda-mb-468, 2 h.
A short description of data set [5]: Drug localization in nucleus of human MDA-MB-468 cells assessed as accumulation of compound in nucleus at 5 uM incubated for 0.5 hrs and measured after […] by SYTO 9 or Hoechst 33342 staining based confocal microscopic analysis. Format: ADME, subcellular. Conditions: mda-mb-468, 2 h.
Data set [6] can be described thus: Drug localization in mitochondria of human MDA-MB-468 cells assessed as blue fluorescence at 5 uM incubated for 2 hrs by MitoTracker Red CMXRos based confocal microscopic analysis. Conditions: mda-mb-468, 2 h. Format: ADME.
For data set [7], the system named is MCF-10A. Kind of data set: Induction of DNA damage in human MCF-10A cells at 5 uM incubated for 48 hrs by Alkaline comet based EVOS digital inverted microscopic analysis. Format: toxicity, cell-based.
A short description of data set [8]: Photophysical property of the compound assessed as relative quantum yield at 2 uM in PBS and DMSO relative to quinine sulfate. Format: physicochemical. Conditions: buffer.

Turning to `CC1(C)OB(c2ccc3cc(-n4cc(CCCCCCCCCOCc5cc(N(CCCl)CCCl)ccc5B5OC(C)(C)C(C)(C)O5)nn4)c(=O)oc3c2)OC1(C)C`, the Drug uptake result is on record as “Not_active” in data set [1]; “Active” in data set [3]; “Active” in data set [4]; “Not_active” in data set [5]; “Not_active” in data set [6]. Besides, the Activity result in the data set with MCF-10A [2] was “Non-toxic”.

Regarding `CC1(C)OB(c2ccc3c(c2)Oc2cc(B4OC(C)(C)C(C)(C)O4)ccc2C32OC(=O)c3cc(-n4cc(CCCCCCCCCOCc5cc(N(CCCl)CCCl)ccc5B5OC(C)(C)C(C)(C)O5)nn4)ccc32)OC1(C)C`, the Drug uptake result in data set [1] is “Not_active”; in data set [3] it was “Active”; in data set [4] it was “Active”; in data set [5] it was “Not_active”; in data set [6], “Not_active”.

For the compound `CC1(C)OB(c2ccc(N(CCCl)CCCl)cc2COCc2cn(-c3cc4ccc(O)cc4oc3=O)nn2)OC1(C)C`, the Drug uptake entry was “Not_active” in data set [5] and “Active” in data set [6]. For the same compound, the Activity entry is recorded as “Non-toxic” in the data set with MCF-10A [7] and 0.17 in data set [8].
